Experimental data as given in US11919939B2, “Beta-2-glycoprotein 1 derived peptide and use thereof for treating antiphospholipid syndrome” (Université de Genéve, priority 2017, dated 2024).
Entries after “also recorded” stand apart in the source; their conditions may differ.

B1: domain V: recombinant fusion protein of β2GP1 domain V (protein)
chain: SCKVPVKKATVVYQGERVKIQEKFKNGMLHGDKVSFFCKNKEKKCSYTEDAQCIDGTIEVPKCFKEHSSLAFWKTDASDVKPC
modifications: left off: small tags and cut ends
B2: reduced β2GP1: reduced β2GP1 exposing the cryptic epitope (protein)
chain: GRTCPKPDDLPFSTVVPLKTFYEPGEEITYSCKPGYVSRGGMRKFICPLTGLWPINTLKCTPRVCPFAGILENGAVRYTTFEYPNTISFSCNTGFYLNGADSAKCTEEGKWSPELPVCAPIICPPPSIPTFATLRVYKPSAGNNSLYRDTAVFECLPQHAMFGNDTITCTTHGNWTKLPECREVKCPFPSRPDNGFVNYPAKPTLYYKDKATFGCHDGYSLDGPEEIECTKLGNWSAMPSCKASCKVPVKKATVVYQGERVKIQEKFKNGMLHGDKVSFFCKNKEKKCSYTEDAQCIDGTIEVPKCFKEHSSLAFWKTDASDVKPC
B3: β-2-Glycoprotein 1 (protein)
chain: B2 chain
notes: native β2GP1 purified from Human Plasma (Prospecbio)
B4: domain I-II: recombinant fusion protein of β2GP1 sushi domain I and II, SEQ ID NO:37 (protein, listed as Homo sapiens)
chain: MISPVLILFSSFLCHVAIAGRTCPKPDDLPFSTVVPLKTFYEPGEEITYSCKPGYVSRGGMRKFICPLTGLWPINTLKCTPRVCPFAGILENGAVRYTTFEYPNTISFSCNTGFYLNGADSAKCTEEGKWSPELPVCA
B5: domain III-IV: recombinant fusion protein of β2GP1 domains III-IV (protein)
chain: PIICPPPSIPTFATLRVYKPSAGNNSLYRDTAVFECLPQHAMFGNDTITCTTHGNWTKLPECREVKCPFPSRPDNGFVNYPAKPTLYYKDKATFGCHDGYSLDGPEEIECTKLGNWSAMPSCKA
modifications: left off: small tags and cut ends

What was measured:
[1] = test system: aPLA (patient-derived anti-β2GP1 antibodies); test: ELISA epitope mapping assay (aPLA binding to coated wells); parameters: species or system human; details: wells coated with 10 μg/ml, aPLA from APS patients
Procedure: IgG fractions were isolated from patients plasma with Protein-G CL-4B Sepharose (GE Healthcare) as previously described.^16 To assay for endotoxin and lipopeptide contamination of the IgG fractions, we depleted IgG from the aPLA and IgG-ctl (control) fractions by one step of affinity adsorption to Protein G-Sepharose and tested the remaining supernatant for its capacity for monocyte activation, as previously described^17. […] Each experiment was performed with at least 2 different preparations of IgG.
MaxiSorp™ 96 well plates (Nunc) were coated with 10 μg/ml recombinant domains or peptides of β2GP1 prior to incubation with aPLA or control IgG. Secondary anti-human antibodies conjugated to IR800CW (Rockland) were used. Protein- or peptide-bound antibodies were detected and quantified by the Odyssey system (Li-Cor).

[2] = test system: human monocytes activated with aPLA; test: TNF production in human monocytes activated with aPLA; type: cell-based; details: domains or peptides at 10 μg/ml
Procedure: Monocytes were isolated from blood buffy coats of healthy volunteers as previously described.^14, 15 Monocyte purity routinely consisted of >90% CD14^+ cells, <1% CD3^+ cells, and <1% CD19^+ cells as assessed by flow cytometry. Cells were cultured in RPMI containing 10% Fetal Bovine Serum (FBS; Gibco BRL-Life Technologies). Each experiment was performed with at least three different preparations of monocytes.
The cells were treated with recombinant domains or peptides of β2GP1 at 10 μg/ml prior to incubation with aPLA or control IgG. Supernatants were collected for TNF quantification by ELISA (R&D System).

[3] = test system: CD4+ T cells from APS patients; test: T cell proliferation assay (CFSE dilution) on PBMC of APS patients; type: cell-based, human; parameters: dose or concentration left out as unconfirmed; details: antigens for 10 days, flow cytometry
Procedure: Peripheral blood mononuclear cells (PBMC) were isolated by density gradient centrifugation over Lymphoprep™ (Axis-Shield PoC) according to the manufacturer's instructions. T cell proliferation was evaluated by 5,6-carboxylfluorescein diacetate succinimidyl ester (CFSE) dilution assays (eBioscience). PBMC were stained with 0.1 μM CFSE (eBioscience), according to the manufacturer's instructions. Cells were cultured in the presence of antigens ([…]) for 10 days. T cell proliferation was assessed by flow cytometry evaluation of CFSE dilution. Proliferation was expressed as the cell division index (defined as the number of CFSE^low T cells cultured with antigen/number of CFSE^low T cells without antigen). In all cases, the culture medium consisted of X-VIVO 15 (Lonza, Walkersville, MD) supplemented with penicillin (100 U/ml) and streptomycin (0.1 mg/ml).
Single-cell suspensions stained with CFSE (eBioscience) were incubated with anti-CD32 (Biolegend) to prevent nonspecific antibody binding, then stained with antibodies against AF488-CD3, AF647-CD4, (BD Bioscience) major histocompatibility complex (MHC) class II tetramer (Benaroya Research Institute). Staining was assessed with ACCURI C6 flow cytometer (BD Biosciences).

Molecule | aPLA binding to peptide- or domain-coated well [1] | Inhibition of TNF production induced by aPLA [2] | also measured
G60A: alanine scanning mutant of p6 (CKPGYVSRGAMRKFICPLTG; listed as Homo sapiens) | involved in the binding of aPLA | – | –
C66A: alanine scanning mutant of p6 (CKPGYVSRGGMRKFIAPLTG; listed as Homo sapiens) | involved in the binding of aPLA | – | –
G59A: alanine scanning mutant of p6 (CKPGYVSRAGMRKFICPLTG; listed as Homo sapiens) | involved in the binding of aPLA | – | –
I7A: alanine scanning mutant of p1 (MISPVLALFSSFLCHVAIAG; listed as Homo sapiens) | significantly decreased the binding of aPLA | – | –
F12A: alanine scanning mutant of p1 (MISPVLILFSSALCHVAIAG; listed as Homo sapiens) | significantly decreased the binding of aPLA | – | –
p10: 20-mer overlapping peptide of β2GP1 domain I-II, SEQ ID NO:44 (ENGAVRYTTFEYPNTISFSC; listed as Homo sapiens) | – | had no effect | –
S11A: alanine scanning mutant of p1 (MISPVLILFSAFLCHVAIAG; listed as Homo sapiens) | significantly decreased the binding of aPLA | – | –
R62A: alanine scanning mutant of p6 (CKPGYVSRGGMAKFICPLTG; listed as Homo sapiens) | involved in the binding of aPLA | – | –
p11: 20-mer overlapping peptide of β2GP1 domain I-II, SEQ ID NO:45 (EYPNTISFSCNTGFYLNGAD; listed as Homo sapiens) | – | had no effect | –
R58A: alanine scanning mutant of p6 (CKPGYVSAGGMRKFICPLTG; listed as Homo sapiens) | involved in the binding of aPLA | – | –
p6: 20-mer peptide of β2GP1 domain I-II containing epitope R39-R43, SEQ ID NO:33 (CKPGYVSRGGMRKFICPLTG; listed as Homo sapiens) | interacted similarly with both peptides; also recorded: interact with aPLA | diminished the production of TNF induced by aPLA | –
F9A: alanine scanning mutant of p1 (MISPVLILASSFLCHVAIAG; listed as Homo sapiens) | significantly decreased the binding of aPLA | – | –
p3: 20-mer overlapping peptide of β2GP1 domain I-II, SEQ ID NO:39 (RTCPKPDDLPFSTVVPLKTF; listed as Homo sapiens) | bound to p3 with a similar efficiency compared to p1 | – | –
M61A: alanine scanning mutant of p6 (CKPGYVSRGGARKFICPLTG; listed as Homo sapiens) | involved in the binding of aPLA | – | –
MISPVLILFSSFLCHVAIAG [p1] | able to bind p1 (SEQ ID NO:32) as potently as p6; also recorded: interact with aPLA | diminished the production of TNF induced by aPLA | CD4+ T cell proliferative response (CD4+CFSElow) [3]: significantly increased; also recorded: induced the proliferation of CD4^+ T cells; CD4+ T cell proliferative response (CD4+CFSElow) ([3]; listed as peptide 1): carries antigenic determinant for CD4^+ T cell proliferation
C14A: alanine scanning mutant of p1 (MISPVLILFSSFLAHVAIAG; listed as Homo sapiens) | significantly decreased the binding of aPLA | – | –
F64A: alanine scanning mutant of p6 (CKPGYVSRGGMRKAICPLTG; listed as Homo sapiens) | involved in the binding of aPLA | – | –
L8A: alanine scanning mutant of p1 (MISPVLIAFSSFLCHVAIAG; listed as Homo sapiens) | significantly decreased the binding of aPLA | – | –
B1 | – | significantly decreased the production of TNF induced by aPLA | –
B2 | binding of aPLA | no effect on aPLA activity | CD4+ T cell proliferative response (CD4+CFSElow) [3]: induce proliferation of T cells; also recorded: proliferative responses were detected
B3 | binding of aPLA | no effect on aPLA activity | CD4+ T cell proliferative response (CD4+CFSElow) [3]: unable to significantly stimulate T cell proliferation
B4 | binding of aPLA | significantly decreased the production of TNF induced by aPLA | CD4+ T cell proliferative response (CD4+CFSElow) [3]: induce proliferation of T cells; CD4+ T cell proliferative response (CD4+CFSElow) ([3]; listed as β2GP1-domain I-II): proliferative responses were detected
B5 | efficiently interacted with aPLA | significantly decreased the production of TNF induced by aPLA | aPLA binding to peptide- or domain-coated well ([1]; listed as domain III): binding of aPLA
